The results in this text go back to US20100056524A1, “Compound” (priority 2008, published 2010).

What all share (assay type): biochemical
The target in one assay is T1, RSK1 (Homo sapiens, UniProt Q15418).
T1 construct: All protein kinases were of human origin and encoded full length proteins, unless indicated otherwise; made in house
Kind of assay: RSK1 protein kinase assay. The conditions noted are these: for remaining activity at 1 µM: 1 μM compound; for remaining activity at 10 µM: 10 μM compound; for residual kinase activity RSK1: 1 μm compound. The source says:
(§1) All protein kinases were of human origin and encoded full length proteins, unless indicated otherwise. They were either expressed as glutathione S-transferase (GST) fusion proteins in Escherichia Coli or as hexahistidine (His6)-tagged proteins in insect Sf21 cells. GST fusion proteins were purified by affinity chromatography on glutathione-Sepharose, and His6-tagged proteins on nickel/nitriloacetate-agarose. The procedures for expressing some of the protein kinases used herein have been detailed previously.^8,9 The following sections outline the DNA vectors synthesised and the procedures used to express and purifying protein kinases that have not been reported previously.
(§2) All assays (25.5 μl) were carried out at room temperature (21° C.) and were linear with respect to time and enzyme concentration under the conditions used. Assays were performed for 30 min using Multidrop Micro reagent dispensers (Thermo Electron Corporation, Waltham, Mass. 02454, USA) in a 96-well format. The concentration of magnesium acetate in the assays was 10 mM and the [γ-33P] ATP (800 cpm/pmol) was used at 5, 20 or 50 μM as indicated, in order to be at or below the Km for ATP for each enzyme. Protein kinases assayed at 5 μM ATP were: —ERK1, ERK8, PKBα, MARK3, Aurora C. Protein kinases assayed at 20 μM ATP were: —JNK1, PDK1, CHK1, CHK2, CDK2 and Aurora B. Protein kinases assayed at 50 μM ATP were: —MNK2, IKKepsilon and TBK1.
(§3) The assays were initiated with MgATP, stopped by addition of 5 μl of 0.5 M orthophosphoric acid and spotted on to P81 filterplates using a unifilter harvester (PerkinElmer, Boston, Mass. 02118, USA). The IC50 values of inhibitors were determined after carrying out assays at 10 different concentrations of each compound.
(§4) Unless stated otherwise, enzymes were diluted in 50 mM Tris/HCl pH 7.5, 0.1 mM EGTA, 1 mg/ml BSA, 0.1% (v/v) 2-mercaptoethanol and assayed in 50 mM Tris/HCl pH 7.5, 0.1 mM EGTA, 0.1% (v/v) 2-mercaptoethanol.

In a further assay the target is T2, MNK2 (Homo sapiens, UniProt Q9HBH9).
T2 construct: All protein kinases were of human origin and encoded full length proteins, unless indicated otherwise; GST; made in house; host or cells: E. coli
Put plainly: MNK2 protein kinase assay. As to conditions: for remaining activity at 1 µM: 1 μM compound; for remaining activity at 10 µM: 10 μM compound; for residual kinase activity MNK2: 1 μm compound.
Source text: as §1
The following proteins were expressed in E. coli: —CHK2[5-543], cyclin-dependent protein kinase 2 (CDK2), MAP kinase-interacting kinase 2 (MNK2), extra-cellular signal-regulated kinase 1 (ERK1).
In order to produce activated forms of Aurora B and Aurora C, insect Sf21 cells were incubated for 1 h with the protein phosphatase inhibitor okadaic acid (50 nM). JNK isoforms were activated with MKK4 and MKK7, MNK2 with p38α MAPkinase; PKBα, PKBβ, with PDK1, and ERK1 with MKK1. To activate CDK2, bacterial pellets expressing cyclin A2 and CDK2 were mixed together, lyse and purified on glutathione Sepharose. The GST-tags were removed by cleavage with PreScission protease and the CDK2-cyclin A2 complex purified by chromatography on SP-Sepharose. It was then activated with CAK1/CDK7 followed by chromatography on nickel-nitrilotriacetate agarose to remove CAK1/CDK7, which binds to this column by virtue of its C-terminal His6 tag. All the other protein kinases were active as expressed.
as §2, §3
ERK1 and ERK8 were both assayed against myelin basic protein (MBP, 0.33 mg/ml). MARK3 was assayed against the peptide […] (300 μM), MNK2 against the eIF4E protein (0.5 mg/ml). PKBβ was assayed against the peptide […] (30 μM). TBK1 were assayed against ([…]) (300 μM). The substrates used for other protein kinases were described previously.^8,9
as §4

The target of another assay is T3, TBK1 (Homo sapiens, UniProt Q9UHD2).
T3 construct: All protein kinases were of human origin and encoded full length proteins, unless indicated otherwise; His6; made in house; host or cells: insect Sf21 cells
T3 sequence (Q9UHD2 1-729): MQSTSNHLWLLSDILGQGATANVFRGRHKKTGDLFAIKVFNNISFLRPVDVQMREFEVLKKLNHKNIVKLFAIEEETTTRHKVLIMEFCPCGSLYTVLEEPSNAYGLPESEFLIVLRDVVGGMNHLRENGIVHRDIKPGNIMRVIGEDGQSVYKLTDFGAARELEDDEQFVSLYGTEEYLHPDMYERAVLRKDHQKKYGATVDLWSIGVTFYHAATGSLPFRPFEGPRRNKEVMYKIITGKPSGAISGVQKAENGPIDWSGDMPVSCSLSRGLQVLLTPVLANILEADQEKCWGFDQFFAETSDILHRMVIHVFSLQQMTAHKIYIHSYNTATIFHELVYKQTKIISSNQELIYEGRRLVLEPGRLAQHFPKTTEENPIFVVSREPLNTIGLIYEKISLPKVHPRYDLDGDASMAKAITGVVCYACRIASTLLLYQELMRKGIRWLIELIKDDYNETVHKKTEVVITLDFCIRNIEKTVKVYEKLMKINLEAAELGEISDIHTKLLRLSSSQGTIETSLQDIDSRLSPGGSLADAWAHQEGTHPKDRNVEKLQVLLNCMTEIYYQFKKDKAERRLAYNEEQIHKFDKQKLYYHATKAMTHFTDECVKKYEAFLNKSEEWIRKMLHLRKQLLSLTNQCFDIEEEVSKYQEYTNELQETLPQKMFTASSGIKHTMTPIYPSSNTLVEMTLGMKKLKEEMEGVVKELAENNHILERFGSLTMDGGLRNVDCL
Kind of assay: TBK1 protein kinase assay ([γ-33P]ATP, P81 filterplates). The procedure, abridged:
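Human TBK1 assayed for 30 min with peptide substrate (300 μM), 50 μM [γ-33P]ATP and 10 mM magnesium acetate in 50 mM Tris/HCl pH 7.5, 0.1 mM EGTA, 0.1% 2-mercaptoethanol. Stopped with orthophosphoric acid and counted on P81 filters. IC50 from 10 compound concentrations.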

The mark [1] stands for this setting: RSK1, read-out: residual kinase activity.
[2] abbreviates: MNK2, 50 μM ATP, read-out: residual kinase activity.
[3] abbreviates: 50 μM ATP, read-out: Potency (TBK1 IC50 potency score).
[4] abbreviates: Table 2, 50 μM ATP, read-out: TBK1 IC50.
[5] abbreviates: read-out: residual kinase activity RSK1.
Where [6] appears, read: read-out: residual kinase activity MNK2.

Where a name gives a salt, the structure may show the parent alone. Read-outs that look alike come from different tables or passages of the source. Some results are limits rather than exact numbers.

T1 sequence (Q15418 whole entry): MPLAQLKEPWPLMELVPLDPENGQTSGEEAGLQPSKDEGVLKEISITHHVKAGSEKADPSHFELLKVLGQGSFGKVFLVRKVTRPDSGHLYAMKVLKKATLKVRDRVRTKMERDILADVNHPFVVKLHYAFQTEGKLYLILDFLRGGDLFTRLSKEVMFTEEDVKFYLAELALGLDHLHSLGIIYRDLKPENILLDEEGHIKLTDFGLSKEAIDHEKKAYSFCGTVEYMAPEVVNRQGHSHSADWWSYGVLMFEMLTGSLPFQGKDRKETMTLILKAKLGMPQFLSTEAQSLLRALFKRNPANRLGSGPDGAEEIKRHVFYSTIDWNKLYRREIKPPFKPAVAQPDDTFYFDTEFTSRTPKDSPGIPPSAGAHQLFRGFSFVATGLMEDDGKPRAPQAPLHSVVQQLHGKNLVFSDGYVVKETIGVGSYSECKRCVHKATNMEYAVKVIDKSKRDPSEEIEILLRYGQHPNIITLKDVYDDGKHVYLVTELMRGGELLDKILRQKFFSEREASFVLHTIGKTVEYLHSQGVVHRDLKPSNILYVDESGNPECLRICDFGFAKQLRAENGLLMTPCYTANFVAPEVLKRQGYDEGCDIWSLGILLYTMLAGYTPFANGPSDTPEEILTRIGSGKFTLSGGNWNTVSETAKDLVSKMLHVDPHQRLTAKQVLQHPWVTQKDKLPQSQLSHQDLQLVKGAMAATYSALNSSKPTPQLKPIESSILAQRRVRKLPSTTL
T2 sequence (Q9HBH9 whole entry): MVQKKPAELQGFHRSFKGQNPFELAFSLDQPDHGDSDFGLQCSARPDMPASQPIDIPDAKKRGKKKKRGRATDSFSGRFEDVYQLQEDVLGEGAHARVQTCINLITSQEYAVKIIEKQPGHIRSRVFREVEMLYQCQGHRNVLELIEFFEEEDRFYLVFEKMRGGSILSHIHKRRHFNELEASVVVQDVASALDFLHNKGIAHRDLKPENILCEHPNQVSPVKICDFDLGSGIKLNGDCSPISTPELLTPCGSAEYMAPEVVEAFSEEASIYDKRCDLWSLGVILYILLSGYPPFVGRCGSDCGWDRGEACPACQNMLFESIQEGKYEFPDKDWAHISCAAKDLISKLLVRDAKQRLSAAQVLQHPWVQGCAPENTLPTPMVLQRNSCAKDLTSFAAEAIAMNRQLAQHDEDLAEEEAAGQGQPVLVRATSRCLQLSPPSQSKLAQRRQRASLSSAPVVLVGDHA

As a reminder, the IC50 is the concentration at which inhibition is half-maximal. As to `O=C(NCCCNc1nc(Nc2cccnc2)ncc1C1CC1)c1cccs1` [Example 50, Thiophene-2-carboxylic acid {3-[5-cyclopropyl-2-(pyridin-3-ylamino)-pyrimidin-4-ylamino]-propyl}-amide], the remaining activity at 1 µM at RSK1 (setting [1]) amounted to 49%; at MNK2 (setting [2]), 56%. The remaining activity at 10 µM on RSK1 (setting [1]) is 20%; at MNK2 (setting [2]), 21%. The results for the 50% inhibitory concentration (IC50) at TBK1 (setting [3]) and on TBK1 (setting [4]) were 100 to 1000 nM and 108 nM, respectively.
As to `O=C(NCCCNc1nc(Nc2cccc(F)c2)ncc1Br)C1CCC1` [Compound A, cyclobutanecarboxylic acid {3-[5-bromo-2-(3-fluoro-phenylamino)-pyrimidin-4-ylamino]-propyl}-amide, reference compound], the values for the remaining activity at 10 µM on RSK1 (setting [5]) and on MNK2 (setting [6]) were 9% and 7%, respectively. In addition, at RSK1, the “residual kinase activity RSK1” value was determined as 27%. Besides, the “residual kinase activity MNK2” value on MNK2 amounted to 6%. The IC50 on TBK1 (read-out: TBK1 IC50) is 2 nM.
For the compound `O=C(NCCCNc1nc(Nc2cccc(F)c2)ncc1C1CC1)C1CCC1` [Example 23, Cyclobutanecarboxylic acid {3-[5-cyclopropyl-2-(3-fluoro-phenylamino)-pyrimidin-4-ylamino]-propyl}-amide], the remaining activity at 10 µM came out at 24% on RSK1 (setting [5]), 24% on RSK1 (setting [1]), 10% at MNK2 (setting [6]) and 10% at MNK2 (setting [2]). The “residual kinase activity RSK1” value at RSK1 came out at 47%. Besides, the figures for the remaining activity at 1 µM at RSK1 (setting [1]) and on MNK2 (setting [2]) were 47% and 39%, respectively. Besides, the “residual kinase activity MNK2” value on MNK2 was 39%. In addition, the IC50 at TBK1 (setting [3]) was less than 100 nM; at TBK1 (setting [4]), 4 nM; at TBK1 (Table 5, 50 μM ATP, read-out: TBK1 IC50), 4 nM; on TBK1 (read-out: TBK1 IC50), 4 nM. Moreover, on TBK1 (from TBK1 IC50 values of Table 5), the “fold more active against TBK1 than Compound B or Compound C” value is reported as greater than 250 fold.
`O=C(NCCCNc1nc(Nc2cccc(N3CCCC3=O)c2)ncc1C1CC1)c1cccs1` [Example 47, Thiophene-2-carboxylic acid (3-{5-cyclopropyl-2-[3-(2-oxo-pyrrolidin-1-yl)-phenylamino]-pyrimidin-4-ylamino}-propyl)-amide. Hydrochloride salt]: the figures for the remaining activity at 1 µM on RSK1 (setting [1]) and on MNK2 (setting [2]) were 45% and 36%, respectively. In addition, the remaining activity at 10 µM was found to be 10% on RSK1 (setting [1]) and 16% on MNK2 (setting [2]).
